How the values were obtained:
PLC δ1 = biological target: T1, PLC δ1 (Homo sapiens, UniProt P51178); experiment: Phosphoinositide hydrolysis in vitro; type: biochemical; details: 25 μM; purified isozyme
T1 sequence (P51178 1-756): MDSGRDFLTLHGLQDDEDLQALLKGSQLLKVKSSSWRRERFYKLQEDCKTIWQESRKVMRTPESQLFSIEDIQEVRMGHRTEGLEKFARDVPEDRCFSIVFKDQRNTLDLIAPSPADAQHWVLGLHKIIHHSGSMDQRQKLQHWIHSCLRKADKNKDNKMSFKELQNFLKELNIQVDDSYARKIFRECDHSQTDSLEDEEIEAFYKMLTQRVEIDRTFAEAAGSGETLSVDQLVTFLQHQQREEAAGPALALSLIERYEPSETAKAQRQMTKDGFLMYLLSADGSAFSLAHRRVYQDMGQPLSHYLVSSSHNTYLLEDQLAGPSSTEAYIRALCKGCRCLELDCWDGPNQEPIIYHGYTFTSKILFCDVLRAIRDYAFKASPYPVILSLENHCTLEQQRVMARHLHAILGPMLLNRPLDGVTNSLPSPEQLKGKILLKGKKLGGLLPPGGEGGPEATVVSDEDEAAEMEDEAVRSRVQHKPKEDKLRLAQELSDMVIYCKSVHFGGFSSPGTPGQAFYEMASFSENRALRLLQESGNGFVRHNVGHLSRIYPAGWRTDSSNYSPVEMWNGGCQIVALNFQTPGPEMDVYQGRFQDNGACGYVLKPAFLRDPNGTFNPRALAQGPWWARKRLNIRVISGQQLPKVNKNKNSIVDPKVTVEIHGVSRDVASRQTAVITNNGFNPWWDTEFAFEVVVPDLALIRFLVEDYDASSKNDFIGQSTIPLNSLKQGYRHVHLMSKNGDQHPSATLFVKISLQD
Method: (§1) The hydrolyzing activity of PtdIns-4,5-P2 was measured on mixed phospholipid vesicles containing 120 μM phosphatidylethanolamine, 30 μM PtdIns-4,5-P2, and 1 μCi/ml [3H] PtdIns-4,5-P2. Purified PLC β2, substrates, and the chemicals (2.5, 5, 10, 20, and 25 μM of m-3M3FBS or of o-3M3FBS) were coincubated (A), 25 μM of m-3M3FBS or o-3M3FBS, and phospholipid substrates were mixed with purified PLC β3, γ1, 2, or δ1 (B). Reactions were performed for 10 min at 37° C. in a 200 μl reaction mixture containing lipid micelles (5 μM [^3H] PtdIns-4,5-P2, 20,000 cpm). Reactions were stopped by adding 1 ml of CHCl3:CH3OH:HCl (50:50:0.3, v/v/v). Inositol trisphosphates were extracted with 0.5 ml of 1 M HCl/5 mM EGTA, and the radioactivity in the upper aqueous phase was measured. Data are presented as means ±S. E. M. of three independent experiments (A, B).
(§2) PLC activity was assayed using [^3H] PtdIns-4,5-P2 as a substrate (Min et al., 1993). PtdIns-4,5-P2-hydrolyzing activity was measured with mixed phospholipid micelles containing 120 μM phosphatidylethanolamine, 30 μM PtdIns-4,5-P2, and 1 μCi/ml [^3H] PtdIns-4,5-P2. The lipids, in chloroform, were dried under a stream of nitrogen gas, suspended in assay buffer (20 mM HEPES pH 7.0, 120 mM NaCl, 2 mM MgCl2, 40 or 100 μM CaCl2, and 1 mg/ml bovine albumin serum (Bayer, Leverkusen, Germany)), and sonicated. All proteins added to the reaction mixture were dialyzed overnight against the assay buffer. Incubation was performed for 10 min at 37° C. in a 200 μl reaction mixture containing lipid micelles (5 μM [3H] PtdIns-4,5-P2, 20,000 cpm). The reaction was stopped by adding 2 ml of CHCl3: CH3OH: HCl (50: 50: 0.3, v/v/v). The inositol triphosphates were extracted with 0.5 ml of 1 N HCl, and radioactivities in the upper aqueous phase were measured.

PLC β3 = biological target: T2, PLC β3 (Homo sapiens, UniProt Q01970); experiment: Phosphoinositide hydrolysis in vitro; type: biochemical; details: 25 μM; purified isozyme
T2 sequence (Q01970 1-1234): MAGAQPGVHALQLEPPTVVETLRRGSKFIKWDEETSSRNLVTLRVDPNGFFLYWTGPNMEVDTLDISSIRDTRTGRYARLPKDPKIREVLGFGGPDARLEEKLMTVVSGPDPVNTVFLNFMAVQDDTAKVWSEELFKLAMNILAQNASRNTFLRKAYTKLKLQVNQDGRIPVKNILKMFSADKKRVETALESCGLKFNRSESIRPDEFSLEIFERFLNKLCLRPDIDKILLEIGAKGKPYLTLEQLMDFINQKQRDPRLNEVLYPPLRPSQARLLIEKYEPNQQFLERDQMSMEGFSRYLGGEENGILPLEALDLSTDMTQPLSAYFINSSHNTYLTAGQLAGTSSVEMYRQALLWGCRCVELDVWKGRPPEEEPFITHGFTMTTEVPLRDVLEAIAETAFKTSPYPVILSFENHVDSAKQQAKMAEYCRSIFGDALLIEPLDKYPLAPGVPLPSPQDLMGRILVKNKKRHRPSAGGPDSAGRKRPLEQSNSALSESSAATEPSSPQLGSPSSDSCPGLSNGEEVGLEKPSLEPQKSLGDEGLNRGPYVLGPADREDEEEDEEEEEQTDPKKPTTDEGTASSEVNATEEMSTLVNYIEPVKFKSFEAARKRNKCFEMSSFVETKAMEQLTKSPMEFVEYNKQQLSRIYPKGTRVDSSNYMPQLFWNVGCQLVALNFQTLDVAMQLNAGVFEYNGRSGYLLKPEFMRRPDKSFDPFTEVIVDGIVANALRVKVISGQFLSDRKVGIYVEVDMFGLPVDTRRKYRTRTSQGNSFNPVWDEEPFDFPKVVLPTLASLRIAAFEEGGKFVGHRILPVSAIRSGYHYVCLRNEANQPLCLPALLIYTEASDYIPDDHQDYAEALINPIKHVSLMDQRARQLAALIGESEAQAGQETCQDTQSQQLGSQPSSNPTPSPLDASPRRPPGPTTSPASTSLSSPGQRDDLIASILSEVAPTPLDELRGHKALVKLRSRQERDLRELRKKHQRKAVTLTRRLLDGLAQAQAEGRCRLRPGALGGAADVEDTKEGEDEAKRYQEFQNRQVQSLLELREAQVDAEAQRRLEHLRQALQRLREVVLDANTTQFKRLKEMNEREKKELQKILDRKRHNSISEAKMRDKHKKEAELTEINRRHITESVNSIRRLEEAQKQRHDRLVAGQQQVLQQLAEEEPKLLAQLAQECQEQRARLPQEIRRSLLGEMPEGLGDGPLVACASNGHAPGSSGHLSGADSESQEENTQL
Method: as §1, §2

Structure (SMILES) | activity of PLC delta1 (PLC δ1) | activity of PLC beta3 (PLC β3)
Cc1cc(C)c(S(=O)(=O)Nc2cccc(C(F)(F)F)c2)c(C)c1 [m-3M3FBS, 2,4,6-Trimethyl-N-(meta 3-trifluoromethyl-phenyl)-benzenesulfonamide] | augmented the activity | augmented the activity
Cc1cc(C)c(S(=O)(=O)Nc2ccccc2C(F)(F)F)c(C)c1 [o-3M3FBS, 2,4,6-Trimethyl-N-(ortho 3-trifluoromethyl-phenyl)-benzenesulfonamide, reference compound] | did not affect | did not affect

Source: US20040220268A1, “Compound that directly stimulates phospholipase C activity” (priority 2003, published 2004)
